Laboratory results reported in patent US20140057840A1, “ANTI-ANDROGENIC AGENT, SEBUM SECRETION BLOCKER, HAIR GROWTH STIMULANT, AND FOOD OR BEVERAGE” (LOTTE CO., LTD., priority 2009, published 2014).

Tested on: hamster sebocytes
Experiment: Sebocyte culture test (sebum synthesis amount, Oil Red O staining)
Format: cell-based, golden hamster
Conditions: concentration of 1×10^−5 M; microscopic observation and absorbance measurement; medium with 1×10^−6M testosterone; about 2 weeks
Method: 1. The test was carried out using a hamster sebocyte culture kit KB-1000 (manufactured by KURABO […] LTD.).
The sebocyte cell derived from the auricula of a normal golden hamster was inoculated in a 24-well plate in a density of 5.0×10^4 cells/well. During the test, the cell was cultured in medium containing testosterone in a concentration of 1×10^−6M.
2. The cell was cultured for several days until confluent, and the medium was exchanged with medium containing the test sample. The medium was exchanged with sample medium every other day and the culture was continued for about 2 weeks.
In this test, cow's lactoferrin was prepared to be used as the lactoferrin, and spironolactone was used as a control.
3. Then, using a sebum synthesis assay kit SE-3001 (manufactured by KURABO […], LTD.), a WST-8 solution was added to each well and incubated for 30 minutes at 37° C. The supernatant was assayed at a wavelength of 450 nm, and the number of viable cell was counted.
4. Further, the supernatant was stained with Oil Red O and observed under a microscope while extracted with 100% isopropanol and measured at a wavelength of 520 nm for the lipid synthesis amount. […]
Comparison of lipid synthesis amount per cell=absorbance B/absorbance A
Absorbance A: cell number measured value (450 nm)
Absorbance B: lipid synthesis amount measured value (520 nm)

Compound: CC(=O)S[C@@H]1CC2=CC(=O)CC[C@]2(C)[C@H]2CC[C@@]3(C)[C@@H](CC[C@@]34CCC(=O)O4)[C@H]12 [spironolactone, reference compound]
- sebum synthesis amount compared with the control: decreased sebum synthesis amount compared with the control
